Data on 32 compounds can be found in patent publication US12503436B2, “Compounds and compositions for treating conditions associated with STING activity” (NOVARTIS PHARMA AG, priority 2021, dated 2025).

For orientation: EC50 means the midpoint of the concentration-response curve.

Chain of STING (Q86WV6 whole entry R71H/G230A/H232R/R293Q): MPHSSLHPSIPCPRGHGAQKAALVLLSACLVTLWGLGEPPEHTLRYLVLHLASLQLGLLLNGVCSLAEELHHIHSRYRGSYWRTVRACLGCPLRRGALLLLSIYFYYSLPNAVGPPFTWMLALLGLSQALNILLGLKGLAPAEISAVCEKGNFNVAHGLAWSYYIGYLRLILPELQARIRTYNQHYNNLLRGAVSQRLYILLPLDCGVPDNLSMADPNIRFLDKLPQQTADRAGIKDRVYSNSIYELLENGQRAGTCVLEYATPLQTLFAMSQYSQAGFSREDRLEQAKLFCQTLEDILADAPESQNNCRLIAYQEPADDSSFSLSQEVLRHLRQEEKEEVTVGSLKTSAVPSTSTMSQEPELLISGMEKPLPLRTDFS

This test has as its target STING (Homo sapiens, UniProt Q86WV6, G230A/H232R/R293Q/R71H). Briefly: STING reporter assay in THP1-Dual KO-IFNAR2 cells (2′3′cGAMP stimulation, luciferase reporter). Type of test: cell-based. Particulars: 15 μM 2′3′cGAMP stimulation, 24 h, read-out: Pharmaron, THP1_IFNAR2 STING 24 h Luci Normalized: GeoMean EC50. Summed up: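 EC50 from secreted luciferase (QUANTI-Luc Plus luminescence of supernatant) after 24 h at 37 °C, 5% CO2. Cells: THP1-Dual KO-IFNAR2, treated with compound (0.0017-100 μM final) plus lipofected 2′3′cGAMP at 15 μM final.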
On the technique in general: Reporter assays use an easily measured gene product as a stand-in for the process of interest.
As to `O=C(Nc1c[nH]c2ccc(CCOc3ccc(C(F)(F)F)cc3)cc12)C1CC(F)(F)C1` [Compound 388, 3,3-difluoro-N-(5-(2-(4-(trifluoromethyl)phenoxy)ethyl)-1H-indol-3-yl)cyclobutane-1-carboxamide], the EC50 lay in the range of 200 to 1000 nM.
Regarding `CC(C)(C)C(=O)Nc1c[nH]c2ccc(CCOc3ccc(C(F)(F)F)cc3)cc12` [Compound 389, N-(5-(2-(4-(trifluoromethyl)phenoxy)ethyl)-1H-indol-3-yl)pivalamide], the EC50 lay within 200 to 1000 nM.
With `N#CC1CCC1C(=O)Nc1c[nH]c2ccc(CCOc3ccc(C(F)(F)F)cc3)cc12` (centres unmarked) [Compound 390, 2-cyano-N-(5-(2-(4-(trifluoromethyl)phenoxy)ethyl)-1H-indol-3-yl)cyclobutane-1-carboxamide], the EC50 was 200 to 1000 nM.
The figure for `N#C[C@H]1C[C@@H]1C(=O)Nc1c[nH]c2ccc(CCOc3ccc(C(F)(F)F)cc3)cc12` [Compound 391, (1S,2S)-2-cyano-N-(5-(2-(4-(trifluoromethyl)phenoxy)ethyl)-1H-indol-3-yl)cyclopropane-1-carboxamide] is 40 to 200 nM; for `C[C@H]1C[C@H](C(=O)Nc2c[nH]c3ccc(CCOc4ccc(C(F)(F)F)cc4)cc23)C1` [Compound 392, trans-3-methyl-N-(5-(2-(4-(trifluoromethyl)phenoxy)ethyl)-1H-indol-3-yl)cyclobutane-1-carboxamide] it is 200 to 1000 nM; for `C[C@H]1C[C@@H](C(=O)Nc2c[nH]c3ccc(CCOc4ccc(C(F)(F)F)cc4)cc23)C1` [Compound 393, cis-3-methyl-N-(5-(2-(4-(trifluoromethyl)phenoxy)ethyl)-1H-indol-3-yl)cyclobutane-1-carboxamide] it is 200 to 1000 nM.
The figure for `C[C@H]1C[C@@H]1C(=O)Nc1c[nH]c2ccc(CCOc3ccc(C(F)(F)F)cc3)cc12` [Compound 394, (1S,2S)-2-methyl-N-(5-(2-(4-(trifluoromethyl)phenoxy)ethyl)-1H-indol-3-yl)cyclopropane-1-carboxamide] is 40 to 200 nM.
For `CC1(F)CC(C(=O)Nc2c[nH]c3ccc(CCOc4ccc(C(F)(F)F)cc4)cc23)C1` (centres unmarked) [Compound 395, 3-fluoro-3-methyl-N-(5-(2-(4-(trifluoromethyl)phenoxy)ethyl)-1H-indol-3-yl)cyclobutane-1-carboxamide], the EC50 fell in the range of 200 to 1000 nM.
Regarding `CC1(C(=O)Nc2c[nH]c3ccc(CCOc4ccc(C(F)(F)F)cc4)cc23)CCCO1` (centres unmarked) [Compound 396, 2-methyl-N-(5-(2-(4-(trifluoromethyl)phenoxy)ethyl)-1H-indol-3-yl)tetrahydrofuran-2-carboxamide], the concentration for a half-maximal effect (EC50) lay within 200 to 1000 nM.
For `CC1(C)CC1C(=O)Nc1c[nH]c2ccc(CCOc3ccc(C(F)(F)F)cc3)cc12` (centres unmarked) [Compound 397, 2,2-dimethyl-N-(5-(2-(4-(trifluoromethyl)phenoxy)ethyl)-1H-indol-3-yl)cyclopropane-1-carboxamide], the EC50 was in the range of 200 to 1000 nM.
With `N#CC1(C(=O)Nc2c[nH]c3ccc(CCOc4ccc(C(F)(F)F)cc4)cc23)CC1` [Compound 398, 1-cyano-N-(5-(2-(4-(trifluoromethyl)phenoxy)ethyl)-1H-indol-3-yl)cyclopropane-1-carboxamide] the figure was 200 to 1000 nM.
Regarding `CC1(C(=O)Nc2c[nH]c3ccc(CCOc4ccc(C(F)(F)F)cc4)cc23)CC1` [Compound 399, 1-methyl-N-(5-(2-(4-(trifluoromethyl)phenoxy)ethyl)-1H-indol-3-yl)cyclopropane-1-carboxamide], the EC50 was in the range of 200 to 1000 nM.
For `O=C(Nc1c[nH]c2ccc(CCOc3ccc(C(F)(F)F)cc3)cc12)C1(F)CC1` [Compound 400, 1-fluoro-N-(5-(2-(4-(trifluoromethyl)phenoxy)ethyl)-1H-indol-3-yl)cyclopropane-1-carboxamide], the EC50 is 200 to 1000 nM.
With `O=C(Nc1c[nH]c2ccc(CCOc3ccc(C(F)(F)F)cc3)cc12)C1CCOCC1` [Compound 401, N-(5-(2-(4-(trifluoromethyl)phenoxy)ethyl)-1H-indol-3-yl)tetrahydro-2H-pyran-4-carboxamide] the figure was 200 to 1000 nM; with `CC(=O)Nc1c(Br)[nH]c2ccc(OCCc3ccc(C(F)(F)F)cc3)cc12` [Compound 402, N-(2-bromo-5-(4-(trifluoromethyl)phenethoxy)-1H-indol-3-yl)acetamide], 5000 to 100000 nM; with `COCCOCC(=O)Nc1c[nH]c2ccc(OCc3ccc(C(F)(F)F)cc3)cc12` [Compound 404, 2-(2-methoxyethoxy)-N-(5-((4-(trifluoromethyl)benzyl)oxy)-1H-indol-3-yl)acetamide], 1000 to 5000 nM.
The figure for `COCCOCC(=O)Nc1c[nH]c2ccc(O[C@H]3C[C@@H](c4ccc(C(F)(F)F)cc4)C3)cc12` [Compound 405, 2-(2-methoxyethoxy)-N-(5-(cis-3-(4-(trifluoromethyl)phenyl)cyclobutoxy)-1H-indol-3-yl)acetamide] is 200 to 1000 nM.
With `COCCOCC(=O)Nc1c[nH]c2ccc(CCOc3ccc(C(F)(F)F)cc3)cc12` [Compound 406, 2-(2-methoxyethoxy)-N-(5-(2-(4-(trifluoromethyl)phenoxy)ethyl)-1H-indol-3-yl)acetamide] the figure was 200 to 1000 nM; with `COCCOCC(=O)Nc1c[nH]c2ccc(OCCc3ccc(C(F)(F)F)cc3)cc12` [Compound 407, 2-(2-methoxyethoxy)-N-(5-(4-(trifluoromethyl)phenethoxy)-1H-indol-3-yl)acetamide], 200 to 1000 nM; with `COCCOCC(=O)Nc1c[nH]c2ccc(OCC[C@@H]3C[C@@H]4CN(CC(F)(F)F)C[C@@H]4C3)cc12` [Compound 408, 2-(2-methoxyethoxy)-N-(5-(2-((3aR,5r,6aS)-2-(2,2,2-trifluoroethyl)octahydrocyclopenta[c]pyrrol-5-yl)ethoxy)-1H-indol-3-yl)acetamide], 40 to 200 nM.
Consider `CC(=O)N[C@H]1C[C@@](C)(C(=O)Nc2c[nH]c3ccc(O[C@H]4C[C@@H](c5ccc(C(F)(F)F)cc5)C4)cc23)C1` [Compound 412, cis-3-acetamido-1-methyl-N-(5-(cis-3-(4-(trifluoromethyl)phenyl)cyclobutoxy)-1H-indol-3-yl)cyclobutane-1-carboxamide], for which the EC50 lay within 1000 to 5000 nM.
The figure for `CC(=O)N[C@H]1C[C@](C)(C(=O)Nc2c[nH]c3ccc(O[C@H]4C[C@@H](c5ccc(C(F)(F)F)cc5)C4)cc23)C1` [Compound 413, trans-3-acetamido-1-methyl-N-(5-(cis-3-(4-(trifluoromethyl)phenyl)cyclobutoxy)-1H-indol-3-yl)cyclobutane-1-carboxamide] is 1000 to 5000 nM.
With `C[C@]1(C(=O)Nc2c[nH]c3ccc(OCc4ccc(C(F)(F)F)cc4)cc23)C[C@@H](O)C1` [Compound 414, cis-3-hydroxy-1-methyl-N-(5-((4-(trifluoromethyl)benzyl)oxy)-1H-indol-3-yl)cyclobutane-1-carboxamide] the figure was 200 to 1000 nM; with `C[C@]1(C(=O)Nc2c[nH]c3ccc(OCc4ccc(C(F)(F)F)cc4)cc23)C[C@H](O)C1` [Compound 415, trans-3-hydroxy-1-methyl-N-(5-((4-(trifluoromethyl)benzyl)oxy)-1H-indol-3-yl)cyclobutane-1-carboxamide], 1000 to 5000 nM; with `C[C@]1(C(=O)Nc2c[nH]c3ccc(OCc4ccc(C(F)(F)F)cc4)cc23)C[C@H](CO)C1` [Compound 416, cis-3-(hydroxymethyl)-1-methyl-N-(5-((4-(trifluoromethyl)benzyl)oxy)-1H-indol-3-yl)cyclobutane-1-carboxamide], 200 to 1000 nM.
The figure for `C[C@]1(C(=O)Nc2c[nH]c3ccc(OCc4ccc(C(F)(F)F)cc4)cc23)C[C@@H](CO)C1` [Compound 417, trans-3-(hydroxymethyl)-1-methyl-N-(5-((4-(trifluoromethyl)benzyl)oxy)-1H-indol-3-yl)cyclobutane-1-carboxamide] is 200 to 1000 nM.
As for `C[C@]1(C(=O)Nc2c[nH]c3ccc(OCc4ccc(C(F)(F)F)cc4)cc23)CC[C@H](O)CC1` [Compound 418, trans-4-hydroxy-1-methyl-N-(5-((4-(trifluoromethyl)benzyl)oxy)-1H-indol-3-yl)cyclohexane-1-carboxamide], the EC50 is 200 to 1000 nM.
The figure for `C[C@]1(C(=O)Nc2c[nH]c3ccc(OCc4ccc(C(F)(F)F)cc4)cc23)CC[C@@H](O)CC1` [Compound 419, trans-4-hydroxy-1-methyl-N-(5-((4-(trifluoromethyl)benzyl)oxy)-1H-indol-3-yl)cyclohexane-1-carboxamide] is 200 to 1000 nM.
With `O=C(Nc1c[nH]c2ccc(O[C@H]3C[C@@H](c4ccc(C(F)(F)F)cc4)C3)cc12)C1(CO)CCC1` [Compound 420, 1-(hydroxymethyl)-N-(5-(cis-3-(4-(trifluoromethyl)phenyl)cyclobutoxy)-1H-indol-3-yl)cyclobutane-1-carboxamide] the figure was 200 to 1000 nM; with `CC1(C(=O)Nc2c[nH]c3ccc(OCc4ccc(C(F)(F)F)cc4)cc23)CN(CC(F)F)C1` [Compound 421, 1-(2,2-difluoroethyl)-3-methyl-N-(5-((4-(trifluoromethyl)benzyl)oxy)-1H-indol-3-yl)azetidine-3-carboxamide], 200 to 1000 nM.
Turning to `COCCN1CC(C)(C(=O)Nc2c[nH]c3ccc(O[C@H]4C[C@@H](c5ccc(C(F)(F)F)cc5)C4)cc23)C1` [Compound 422, 1-(2-methoxyethyl)-3-methyl-N-(5-(cis-3-(4-(trifluoromethyl)phenyl)cyclobutoxy)-1H-indol-3-yl)azetidine-3-carboxamide], the EC50 was 1000 to 5000 nM.
With `C[C@@H]1OC[C@H]1C(=O)Nc1c[nH]c2ccc(O[C@H]3C[C@H](c4ccc(C(F)(F)F)cc4)C3)cc12` [Compound 423, (2S,3R)-2-methyl-N-(5-(trans-3-(4-(trifluoromethyl)phenyl)cyclobutoxy)-1H-indol-3-yl)oxetane-3-carboxamide] the figure was 200 to 1000 nM.
